The values below come from patent publication US20230174945A1, “METHOD FOR INDUCING DIFFERENTIATION INTO PANCREATIC ALPHA CELLS” (KANEKA CORPORATION, priority 2020, published 2023).

Experiment [1] deals with human iPS cells. The experiment is described as follows: Quantitative RT-PCR of cells differentiated from human iPS cells, with additives in the endodermal cell to primitive gut tube (PGT) cell step. It counts as cell-based. Particulars: added to medium for 3 days when inducing endodermal cells into PGT cells (0.67 µM LDN193189, 1 µM EC23); compared to cells of Comparative Example 1; standardized by OAZ1; FIG. 1. Here is the method:
Differentiation was induced by the same method as in Comparative Example 1 up to the endodermal cells. For induction of differentiation from the endodermal cells into primitive gut tube (PGT) cells, the suspension culture was implemented for 3 days in a medium obtained by adding 0.67 µM LDN193189 to the medium used in Comparative Example 1, a medium obtained by adding 1 µM EC23 to the medium used in Comparative Example 1, or a medium obtained by adding both of them to the medium used in Comparative Example 1. In addition, 2.5 µM Y-27632 was added to the above-mentioned medium for the purpose of maintaining the shape of the clumps. A 30 mL single-use bioreactor was mounted on a six-channel magnetic stirrer, and while stirring at the speed of 45 rpm, the suspension culture was implemented in a 5% CO2 incubator at 37° C. Induction of differentiation after posterior foregut (PFG) cells was performed in the same method as in Comparative Example 1.
Total RNA was isolated and purified from the cells obtained by inducing differentiation in (1) using Isogen (Nippon Gene), and cDNA was synthesized from the obtained total RNA using PrimeScriptII (TaKaRa Bio Inc.). Using the obtained cDNA as a template, quantitative PCR was implemented by means of a MyiQ qPCR machine (Bio-Rad), using GoTaq qPCR master mix (Promega). For the detection, the intercalation method using SYBR Green was used, and for the gene expression level comparison, the relative quantification method by means of the ΔΔCt method or the ΔCt method was used. The expression level of each gene was standardized by OAZ1 which is a housekeeping gene.

The subject of experiment [2] is human iPS cells. The experiment is described as follows: Measurement of GCG (glucagon) secretion amount by Glucagon ELISA. As to conditions: ascorbic acid removed from differentiation medium after PGT cells (Example 2) compared to medium with 0.25 mM ascorbic acid (Example 1); 2.0 mM glucose, 1 hour; FIG. 2. The class given is cell-based. Here is the method: Primitive gut tube (PGT) cells were produced from human iPS cells by the same method as in Example 1. The obtained primitive gut tube (PGT) cells were induced to differentiate into cells after posterior foregut (PFG) cells using a medium obtained by removing ascorbic acid from the medium of Comparative Example 1. The cells obtained by inducing differentiation in (1) were recovered in 2 × 10^6 cells and cultured for 30 minutes in a DMEM medium (containing 2 mM glucose) containing 10 mM HEPES and 0.1 (volume/volume)% BSA. Thereafter, the cells were washed twice with a DMEM medium (without glucose) containing 10 mM HEPES and 0.1 (volume/volume)% BSA. Thereafter, the cells were cultured for 1 hour in a DMEM medium containing 1 mL of 2.0 mM glucose, 10 mM HEPES, and 0.1 (volume/volume)% BSA. Thereafter, the GCG concentration contained in the culture supernatant was measured using a Glucagon ELISA 10 µl Kit (Mercodia). The GCG secretion amounts of the cells obtained in Example 1 and Comparative Example 1 were also measured as comparison targets by the above-mentioned method.
A general note: In an ELISA, binding on a coated surface is turned into a signal by an enzyme label.

With `CC1(C)CCC(C)(C)c2cc(C#Cc3ccc(C(=O)O)cc3)ccc21` [EC23], the “expression level of the GCG gene” value with human iPS cells [1] is reported as “up-regulation”.

On to `c1ccc2c(-c3cnn4cc(-c5ccc(N6CCNCC6)cc5)cnc34)ccnc2c1` [LDN193189], for which, in the experiment on human iPS cells [1], the “expression level of the INS gene” value is given as “down-regulation” and the “expression level of the NKX6.1 gene” value was “down-regulation”.

For `O=C1O[C@H]([C@@H](O)CO)C(O)=C1O` [ascorbic acid], the glucagon secretion amount result in the experiment with human iPS cells [2] was “larger”.
